Test results taken from paper PMC4277420, “Assessment of [^125I]WYE-230949 as a Novel Histamine H3 Receptor Radiopharmaceutical” (PLoS ONE, 2014).

Assays:
histamine H3 receptor = target: T1, histamine H3 receptor (Rattus norvegicus, UniProt Q9QYN8); test: Ex vivo autoradiography (target to cerebellum ratios); type: in vivo
T1 construct: Sections (20 µm) cut from a frozen rat brain were pre-incubated in Tris-HCl buffer; from tissue
Protocol: (§1) Animal experiments were conducted under the UK Animals (Scientific Procedures) Act 1986. This work was approved by the ethical review committee at the University of Glasgow (PPL: 60/3436) prior to the start of study. Naïve male Sprague-Dawley rats (Harlan, UK), weighing 217 to 352 g were either conscious or anaesthetised (2.5–3% isoflurane via a tracheostomy and artificial ventilation in 70/30% N2O/O2) for the duration of the experiment. Anaesthetised rats had their respiration and temperature monitored throughout. [^125I]WYE-230949 was administered via a femoral vein cannula to anaesthetised rats or via the lateral tail vein to conscious rats. The injected dose for each rat was calculated by measuring the syringe in a dose calibrator before and after [^125I]WYE-230949 administration. The radioactive and radiochemical amounts administered to individual rats ranged from 12.6 to 24.5 MBq and 0.32 to 0.70 µg/kg respectively in all in vivo studies.
Regional brain uptake was determined by ex vivo autoradiography, studies were performed in both conscious and anaesthetised rats in order to investigate the effect of anaesthesia on [^125I]WYE-230949 uptake. At either 30 or 120 min following [^125I]WYE-230949 administration rats were killed by cervical dislocation. The brains were removed, frozen in isopentane at −42°C and stored at −20°C before sectioning (20 µm) in a cryostat (Bright Instrument Company Ltd). Three sections were taken every 400 µm for the entire length of the rat brain and thaw mounted onto poly-L-lysine coated slides. Sections were dried at room temperature and apposed to X-ray film (Kodak Biomax MR-1) for approximately 2 weeks. The resultant autoradiograms were analysed using computer-based densitometry (MCID, Imaging Research, Canada). Relative optical density (ROD) measurements were obtained from 14 ROIs defined with reference to a rat brain atlas. For each brain region examined, bilateral readings were obtained in triplicate and the average reading determined. ROD values in the cerebellum were used as a measure of non-specific binding. Specific binding was calculated as ROD in ROI/ROD in cerebellum.

[1] = Partition and distribution co-efficients (logP and logD), shake-flask method; type: physicochemical
Protocol: The lipophilicity of [^125I]WYE-230949 was determined in octanol/water and at physiological pH using a modification of the shake-flask method. […] The radioactivity incorporated in both phases was determined using a gamma counter (Cobra Gamma Counter, Packard, Perkin Elmer Life and Analytical Sciences, Boston, MA, USA). The assay was performed in triplicate on 3 separate occasions. LogP was calculated to be log [counts in octanol/counts in water] and logD was calculated to be log [counts in octanol/counts in pH 7.4 buffer].

[2] = In vivo microSPECT imaging of brain uptake; set-up: species or system rat
Protocol: as §1
MicroSPECT imaging was performed in order to image the uptake of [^125I]WYE-230949 in the brain over time. SPECT scanning was performed using a MollyQ 50 microSPECT scanner (Neurophysics Corp., Shirley, MA, U.S.A.). Rats were anaesthetised for the duration of scan (2–3% isoflurane in 70/30% N2O/O2) and physiological parameters were maintained as described previously. The scanning protocol was designed to ensure that a forebrain slice encompassing structures dense in H3 bindings sites including cortex, striatum, hippocampus and thalamus was captured; the first slice being 14.4 mm caudal to the eyes, approximately at the level of the caudate nucleus. Scanning was commenced 12 min prior to intravenous injection of [^125I]WYE-230949 via the tail vein. Ten sequential coronal slices (400 µm/slice) were collected over a total scanning distance of 4 mm with a scanning time of 12 min per repetition. […] The mean intensity of the ROI in each slice of the SPECT images was measured by plotting a z-axis profile. […] Finally these values were expressed as % of injected dose per ml of tissue and plotted against time.

T1 sequence (Q9QYN8 whole entry): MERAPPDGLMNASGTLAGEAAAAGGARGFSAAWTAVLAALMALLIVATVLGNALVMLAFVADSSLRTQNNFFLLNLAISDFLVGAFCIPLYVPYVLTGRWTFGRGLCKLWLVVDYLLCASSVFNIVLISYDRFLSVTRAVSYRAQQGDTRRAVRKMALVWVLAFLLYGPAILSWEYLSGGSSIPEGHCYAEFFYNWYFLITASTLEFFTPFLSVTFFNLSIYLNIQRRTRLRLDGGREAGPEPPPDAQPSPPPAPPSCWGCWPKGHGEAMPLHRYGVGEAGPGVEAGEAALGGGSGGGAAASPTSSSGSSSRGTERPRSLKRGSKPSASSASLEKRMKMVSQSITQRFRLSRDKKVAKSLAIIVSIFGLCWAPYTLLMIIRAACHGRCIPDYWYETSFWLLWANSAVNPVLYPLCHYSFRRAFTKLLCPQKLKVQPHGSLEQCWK

**Q.** Which “Target to cerebellum ratio” value (histamine H3 receptor; Amygdala, 30 min, anaesthetised) does the source give for `O=C(c1ccc(Cn2cnc3cccc([125I])c32)cc1)N1CC[C@H](N2CCCC2)C1` [[^125I]WYE-230949] here?
**A.** Its value is 1.10±0.02.

**Q.** What about the “Target to cerebellum ratio” value (histamine H3 receptor; Amygdala, 30 min, conscious) of the same molecule?
**A.** Its value is 1.12±0.04.

**Q.** And the “Target to cerebellum ratio” value (histamine H3 receptor; Amygdala, 120 min, anaesthetised)?
**A.** Its value is 1.16±0.03.

**Q.** And the “Target to cerebellum ratio” value (histamine H3 receptor; Amygdala, 120 min, conscious)?
**A.** The value was 1.26±0.03.

**Q.** And the “Target to cerebellum ratio” value (histamine H3 receptor; Anterior Cortex, 30 min, anaesthetised)?
**A.** The value was 1.09±0.03.

**Q.** What about the “Target to cerebellum ratio” value (histamine H3 receptor; Anterior Cortex, 30 min, conscious) of the same molecule?
**A.** Its value is 1.15 ± 0.02.

**Q.** What about the “Target to cerebellum ratio” value (histamine H3 receptor; Anterior Cortex, 120 min, anaesthetised) of the same molecule?
**A.** The value was 1.10±0.02.

**Q.** And the “Target to cerebellum ratio” value (histamine H3 receptor; Anterior Cortex, 120 min, conscious)?
**A.** Its value is 1.16±0.02.

**Q.** And the “Target to cerebellum ratio” value (histamine H3 receptor; Caudate Putamen, 30 min, anaesthetised)?
**A.** Its value is 1.13±0.03.

**Q.** And the “Target to cerebellum ratio” value (histamine H3 receptor; Caudate Putamen, 30 min, conscious)?
**A.** Its value is 1.17±0.03.

**Q.** What about the “Target to cerebellum ratio” value (histamine H3 receptor; Caudate Putamen, 120 min, anaesthetised) of the same molecule?
**A.** Its value is 1.20±0.04.

**Q.** What about the “Target to cerebellum ratio” value (histamine H3 receptor; Caudate Putamen, 120 min, conscious) of the same molecule?
**A.** The value was 1.32±0.04.

**Q.** And the “Target to cerebellum ratio” value (histamine H3 receptor; Choroid Plexus, 30 min, anaesthetised)?
**A.** Its value is 1.73±0.06.

**Q.** What about the “Target to cerebellum ratio” value (histamine H3 receptor; Choroid Plexus, 30 min, conscious) of the same molecule?
**A.** Its value is 2.68±0.04.

**Q.** What about the “Target to cerebellum ratio” value (histamine H3 receptor; Choroid Plexus, 120 min, anaesthetised) of the same molecule?
**A.** The value was 1.79±0.10.

**Q.** What about the “Target to cerebellum ratio” value (histamine H3 receptor; Choroid Plexus, 120 min, conscious) of the same molecule?
**A.** Its value is 2.66±0.11.

**Q.** And the “Target to cerebellum ratio” value (histamine H3 receptor; Hippocampus, 30 min, anaesthetised)?
**A.** Its value is 1.08±0.03.

**Q.** What about the “Target to cerebellum ratio” value (histamine H3 receptor; Hippocampus, 30 min, conscious) of the same molecule?
**A.** The value was 1.06±0.02.

**Q.** And the “Target to cerebellum ratio” value (histamine H3 receptor; Hippocampus, 120 min, anaesthetised)?
**A.** The value was 1.08±0.01.

**Q.** What about the “Target to cerebellum ratio” value (histamine H3 receptor; Hippocampus, 120 min, conscious) of the same molecule?
**A.** Its value is 1.10±0.02.

**Q.** And the “Target to cerebellum ratio” value (histamine H3 receptor; Hypothalamus, 30 min, anaesthetised)?
**A.** Its value is 1.16±0.03.

**Q.** What about the “Target to cerebellum ratio” value (histamine H3 receptor; Hypothalamus, 30 min, conscious) of the same molecule?
**A.** The value was 1.13±0.03.

**Q.** And the “Target to cerebellum ratio” value (histamine H3 receptor; Hypothalamus, 120 min, anaesthetised)?
**A.** The value was 1.18±0.03.

**Q.** And the “Target to cerebellum ratio” value (histamine H3 receptor; Hypothalamus, 120 min, conscious)?
**A.** Its value is 1.18±0.02.

**Q.** What about the “Target to cerebellum ratio” value (histamine H3 receptor; Medial Cortex, 30 min, anaesthetised) of the same molecule?
**A.** The value was 1.10±0.03.

**Q.** What about the “Target to cerebellum ratio” value (histamine H3 receptor; Medial Cortex, 30 min, conscious) of the same molecule?
**A.** Its value is 1.22±0.03.

**Q.** And the “Target to cerebellum ratio” value (histamine H3 receptor; Medial Cortex, 120 min, anaesthetised)?
**A.** Its value is 1.12±0.02.

**Q.** And the “Target to cerebellum ratio” value (histamine H3 receptor; Medial Cortex, 120 min, conscious)?
**A.** Its value is 1.21±0.02.

**Q.** And the “Target to cerebellum ratio” value (histamine H3 receptor; Nucleus Accumbens (Core), 30 min, anaesthetised)?
**A.** Its value is 1.12±0.03.

**Q.** What about the “Target to cerebellum ratio” value (histamine H3 receptor; Nucleus Accumbens (Core), 30 min, conscious) of the same molecule?
**A.** Its value is 1.15±0.03.

**Q.** And the “Target to cerebellum ratio” value (histamine H3 receptor; Nucleus Accumbens (Core), 120 min, anaesthetised)?
**A.** The value was 1.24±0.04.

**Q.** And the “Target to cerebellum ratio” value (histamine H3 receptor; Nucleus Accumbens (Core), 120 min, conscious)?
**A.** The value was 1.36±0.03.

**Q.** What about the “Target to cerebellum ratio” value (histamine H3 receptor; Nucleus Accumbens (Shell), 30 min, anaesthetised) of the same molecule?
**A.** Its value is 1.12±0.02.

**Q.** What about the “Target to cerebellum ratio” value (histamine H3 receptor; Nucleus Accumbens (Shell), 30 min, conscious) of the same molecule?
**A.** The value was 1.17±0.06.

**Q.** What about the “Target to cerebellum ratio” value (histamine H3 receptor; Nucleus Accumbens (Shell), 120 min, anaesthetised) of the same molecule?
**A.** Its value is 1.24±0.04.

**Q.** And the “Target to cerebellum ratio” value (histamine H3 receptor; Nucleus Accumbens (Shell), 120 min, conscious)?
**A.** Its value is 1.33±0.05.

**Q.** And the “Target to cerebellum ratio” value (histamine H3 receptor; Posterior Cortex, 30 min, anaesthetised)?
**A.** Its value is 1.08±0.03.

**Q.** What about the “Target to cerebellum ratio” value (histamine H3 receptor; Posterior Cortex, 30 min, conscious) of the same molecule?
**A.** Its value is 1.18±0.03.

**Q.** And the “Target to cerebellum ratio” value (histamine H3 receptor; Posterior Cortex, 120 min, anaesthetised)?
**A.** The value was 1.13±0.03.

**Q.** What about the “Target to cerebellum ratio” value (histamine H3 receptor; Posterior Cortex, 120 min, conscious) of the same molecule?
**A.** Its value is 1.26±0.02.

**Q.** And the “Target to cerebellum ratio” value (histamine H3 receptor; Substantia Nigra, 30 min, anaesthetised)?
**A.** The value was 1.19±0.03.

**Q.** And the “Target to cerebellum ratio” value (histamine H3 receptor; Substantia Nigra, 30 min, conscious)?
**A.** Its value is 1.10±0.02.

**Q.** What about the “Target to cerebellum ratio” value (histamine H3 receptor; Substantia Nigra, 120 min, anaesthetised) of the same molecule?
**A.** Its value is 1.26±0.04.

**Q.** And the “Target to cerebellum ratio” value (histamine H3 receptor; Substantia Nigra, 120 min, conscious)?
**A.** The value was 1.26±0.03.

**Q.** What about the “Target to cerebellum ratio” value (histamine H3 receptor; Thalamus, 30 min, anaesthetised) of the same molecule?
**A.** The value was 1.10±0.03.

**Q.** And the “Target to cerebellum ratio” value (histamine H3 receptor; Thalamus, 30 min, conscious)?
**A.** The value was 1.11±0.02.

**Q.** And the “Target to cerebellum ratio” value (histamine H3 receptor; Thalamus, 120 min, anaesthetised)?
**A.** The value was 1.09±0.02.

**Q.** What about the “Target to cerebellum ratio” value (histamine H3 receptor; Thalamus, 120 min, conscious) of the same molecule?
**A.** Its value is 1.08±0.02.

**Q.** What about the “ratio of specific to non-specific binding” value (histamine H3 receptor; all brain ROIs, conscious and anaesthetised rats) of the same molecule?
**A.** Its value is “less than 1.4”.

**Q.** What about the logD7.4 ([1]; octanol/phosphate buffer pH 7.4, n = 3) of the same molecule?
**A.** The logD7.4 was 1.64±0.04.

**Q.** What about the logP ([1]; octanol/water, n = 3) of the same molecule?
**A.** The logP was 1.59±0.04.

**Q.** And the “maximum brain uptake (microSPECT)” value ([2]; first 12 min following i.v. injection, anaesthetised rats, n = 5)?
**A.** The value was 0.14±0.01 % ID/ml.

**Q.** What about the “maximum brain uptake (SPECT), as restated in discussion” value ([2]; first 12 min post injection, rats) of the same molecule?
**A.** The value was 0.14 %ID/g.

**Q.** What about the “half-life in rat brain” value ([2]; microSPECT time activity curve) of the same molecule?
**A.** The value was 45.4 min.
